Test results as given in patent publication US9452130B2, “Pharmaceutical composition for preparing drug delivery nano/micro bubbles” (priority 2014, dated 2016).

Columns and labels:
cells = experiment: Cell images of cells co-cultured with the components of the nano/micro bubbles (FITC-insulin transmission); assay type: cell-based; settings: cells co-cultured with the component; stained with Cld 4, E-cadherin, DAPI; FIG. 3
diabetic rats = experiment: Blood glucose change in diabetic rats after oral or subcutaneous administration; assay type: in vivo, male Wistar rats; settings: subcutaneous injection, 5 IU/kg, 0 to 10 hours; FIG. 5
Procedure: Animal experimental procedures were performed based on the management and use of laboratory animals guidelines promulgated by the Council of Agriculture. About 300 to 350 grams of male rats (male Wistar rats) were used. The animal experiments were performed to investigate the treatment of diabetic rats using insulin-embedded carrier system by oral administration of drugs. During experiment, the rats were administrated by oral (30 IU/Kg) and subcutaneous (5 IU/Kg) administration after the rats were fixed. At different times, the animals were placed in the blood-drawing fixation frame to expose the tail, and then the tails were disinfected with iodine to prevent bacterial infection. […] Meanwhile, pharmacokinetics was measured using enzyme immunoassay. In the present example, groups comprising nano/micro bubbles of the present invention (containing 30 IU/kg of insulin), oral administration (30 IU/kg of insulin) and subcutaneous injection of insulin (5 IU/kg) are compared. The change rates in plasma insulin and blood glucose concentration from 0 to 10 hours after subjects taking insulin or injected with insulin were recorded respectively, and the results are illustrated in FIGS. 5a and 5b.

Row | Compound | transmission of FITC-insulin (pathway) (cells) | change rate of the blood glucose (diabetic rats)
1 | O=C(O)CN(CCN1CC(=O)OC(=O)C1)CCN1CC(=O)OC(=O)C1 [DTPA dianhydride, diethylenetriaminepentaacetic dianhydride] | can promote transmission of FITC-insulin via paracellular pathway | –
2 | insulin | – | rapidly declined and rose again
3 | CCCCCCCCCCCCOS(=O)(=O)[O-].[Na+] [SDS] | can promote transmission of FITC-insulin via both of paracellular pathway and transcellular pathway | –
